For 1 molecule, Ki results are on record in BindingDB's records for doi:10.1016/S0960-894X(00)80673-3 (1993).

For this assay, the target named is HIV-2 protease (Human immunodeficiency virus 2). Briefly: Tested for the inhibition of HIV-2 protease.

Usually Ki stands for the equilibrium dissociation constant of an inhibitor or competing ligand from its target. The low end stands for higher affinity, the high end for lower affinity. The molecule `CCC(C)[C@H](NC(=O)[C@@H](C[C@H](O)[C@H](CC1CCCCC1)NC(=O)[C@H](CC(N)=O)NC(=O)c1ccc2ccccc2n1)C(C)C)C(=O)NCc1ccccn1` (stereo partly drawn) [(S)-N*1*-((1S,2S,4S)-1-Cyclohexylmethyl-2-hydroxy-5-methyl-4-{(S)-2-methyl-1-[(pyridin-2-ylmethyl)-carbamoyl]-butylcarbamoyl}-hexyl)-2-[(quinoline-2-carbonyl)-amino]-succinamide] had a Ki of 65 nM.
